According to ChEMBL document CHEMBL3112406, “Virtual screening and biochemical evaluation to identify new inhibitors of mammalian target of rapamycin (mTOR)” (Bioorg Med Chem Lett, 2014):

Target: Serine/threonine-protein kinase mTOR (Homo sapiens, UniProt P42345)
Test: Inhibition of mTOR (unknown origin) by KINOMEscan assay

- IC50: 54.1 µM
SMILES: c1ccc(-c2c(-c3ccccc3)n(Cc3ccco3)c3ncnc(NCCCn4ccnc4)c23)cc1
